Laboratory results published in ChEMBL document CHEMBL1208700, “Anibamine, a natural product CCR5 antagonist, as a novel lead for the development of anti-prostate cancer agents” (Bioorg Med Chem Lett, 2010).
Active and inactive are the calls of the source. No cut-off for these calls is given here.

Assays:
[1] = system: M12; test: Inhibition of human M12 cells invasion after 16 hrs; assay type: functional, cell-based
[2] = Inhibition of human M12 cells adhesion at 10 to 100 nM after 24 hrs; assay type: functional
[3] = system: PC-3; test: Antiproliferative activity against human PC3 cells after 72 hrs by WST-1 assay; assay type: functional, cell-based
[4] = Inhibition of human M12 cells invasion at 50 to 500 nM after 16 hrs; assay type: functional
[5] = system: M12; test: Antiproliferative activity against human M12 cells after 72 hrs by WST-1 assay; assay type: functional, cell-based
[6] = system: M12; test: Reversal of disorganized beta-1 integrin in human M12 cells at 1 uM after 8 days by confocal immunofluorescence microscopy; assay type: functional, cell-based
[7] = system: M12; test: Reversal of 3D IrECM gel-induced morphological changes in human M12 cells at 500 nM to 1 uM after 5 to 8 days by light microscopic analysis; assay type: functional, cell-based
[8] = system: DU-145; test: Antiproliferative activity against human DU145 cells after 72 hrs by WST-1 assay; assay type: functional, cell-based
[9] = Reduction of vimentin gene expression in human M12 cells at 1 uM after 8 days by confocal immunofluorescence microscopy; assay type: functional, cell-based
[10] = Antitumor activity against human M12 cells xenografted in athymic nude mouse assessed as reduction of tumor size at 0.3 mg/kg, iv administered once every fourth day for 16 days; assay type: functional; parameters: scale not given: the % may be the effect or the level left
[11] = system: M12; test: Reversal of disorganized alpha6 integrin in human M12 cells at 1 uM after 8 days by confocal immunofluorescence microscopy; assay type: functional, cell-based
[12] = Toxicity in sheep RBC assessed as hemolysis at 1 uM after 60 mins; assay type: cell-based, Ovis aries; conditions: erythrocyte, 1 h

CCCCCCCC/C=C\c1c(C)c(/C=C\CCCCCCCC)c2[n+](c1C)CCC2.O=C([O-])C(F)(F)F [ANIBAMINE]
inhibition [1]: Dose-dependent effect | inhibition (INH) [2]: 26% | Activity [3]: Dose-dependent effect | inhibition (INH) [4]: 42% | Activity [5]: Dose-dependent effect | Activity [6]: Active | Activity [7]: Active | Activity [8]: Dose-dependent effect | Activity [9]: Active | Activity [10]: 50% | Activity [11]: Active | Activity [12]: Non-toxic
